Results taken from patent US5708063A, “Photochromic compound” (Tokuyama Corporation, priority 1993, dated 1998).

How the values were obtained:
[1] = Photochromic PMMA cast film: initial coloration density, maximum absorption wavelength and fatigue life in xenon fadeometer (Example 9); assay type: physicochemical; conditions: PMMA cast film 0.1 mm; for λmax / Initial color density: xenon light; for Initial color density / T1/2: no stabilizer; for T1/2: time for color density to fall to half of initial value, xenon fadeometer;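 as to Initial color density: initial color density is an absorbance value so the % unit is wrong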
Description: The thickness of the cast film was adjusted to 0.1 mm.
(§1) T1/2 is defined as the time required for the color density to decrease to half of its initial value when the film is exposed to the fadeometer.

[2] = Durability of poly(allyl diglycol carbonate) lens impregnated with the compound in silicone oil, as in Example 9 (Example 10); assay type: physicochemical; set-up: Initial color density: unit not given here; conditions: silicone oil impregnation; for Initial color density: 1.0×10^-4 mole/g; for T1/2: xenon fadeometer
Method: as §1
The solution was impregnated in the surface of a lens composed of poly(allyl diglycol carbonate) at 200° C. for 1 hour. The concentration of the solution was adjusted to 1.0×10^-4 mole/g.

Structure (SMILES) | λmax [1] | Initial color density [1] | T1/2 [1] | λmax [2] | Initial color density [2] | T1/2 [2]
COC(=O)CN1C(=O)C2=C(C3CC3)c3ccoc3C3(C4CCC3CC4)C2C1=O (centres unmarked) [(20)] | 531 nm | 0.82% | 89 h | 535 nm | 0.73 | 95 h
O=C1C2=C(C3CC3)c3sc4c(c3C3(C5CCCC3CCC5)C2C(=O)N1CCc1cccc2ccccc12)CCCC4 (centres unmarked) [(33)] | 519 nm | 0.56% | 7.8 h | 525 nm | 0.49 | 80 h
COc1cc2c(c(OC)c1OC)C1(C3CC4CC1CC(OC)(C4)C3)C1C(=O)N(CC(=O)NCCBr)C(=O)C1=C2C1CC1C(Cl)(Cl)Cl (centres unmarked) [(39)] | 527 nm | 0.58% | 65 h | – | – | –
N#CCN1C(=O)C2=C(C3CC3Oc3ccccc3)c3ccoc3C3(C4CCC3CC4)C2C1=O (centres unmarked) [(22)] | 554 nm | 0.81% | 88 h | 559 nm | 0.70 | 93 h
COc1cc(OC)c2c(c1)C(C1C(C)(C)C1(C)C)=C1C(=O)N(Cc3ccc4ccccc4c3)C(=O)C1C21C2CCC1CC2 (centres unmarked) [(18)] | 603 nm | 0.62% | 61 h | – | – | –
CCOC(=O)OCN1C(=O)C2=C(C3C(c4ccccc4)C3c3ccccc3)c3cc(-c4ccc(OC)cc4)sc3C3(C4CCCC3CCC4)C2C1=O (centres unmarked) [(31)] | 624 nm | 0.77% | 81 h | 616 nm | 0.69 | 86 h
COC12CCCC(CCC1)C21c2c(Cl)csc2C(C2CC2CCc2ccccc2)=C2C(=O)N(CC(=O)NCCBr)C(=O)C21 (centres unmarked) [(28)] | 526 nm | 0.56% | 54 h | – | – | –
COCCOCN1C(=O)C2=C(C3(F)C(F)(F)C3(F)F)c3c(oc4ccccc34)C3(C2C1=O)C1(F)CCC3(F)CC1 (centres unmarked) [(16)] | 498 nm | 0.82% | 91 h | – | – | –
O=C1C2=C(C3CC3)c3cc(Br)sc3C3(C4CCCC3CCC4)C2C(=O)N1CCc1ccc2ccccc2c1 (stereo not drawn) [(3), 2-bromo-4-cyclopropyl-6,7-dihydrido-N-(β-naphtylethyl)spirobenzo[5,6-b]thiophenedicarboxyimido-7'9'-bicyclo[3.3.1]nonane] | 545 nm | 0.88% | 45 h | 550 nm | 0.81 | 49 h
CNC(=O)CN1C(=O)C2=C(C3CC3C(F)(F)F)c3cc([N+](=O)[O-])sc3C3(C4CCC3CC4)C2C1=O (centres unmarked) [(11)] | 530 nm | 0.75% | 65 h | – | – | –
COC12CCC(CC1)C21c2oc3ccccc3c2C(C2CC2(Br)Br)=C2C(=O)N(CC(=O)OC(C)(C)CCC#N)C(=O)C21 (centres unmarked) [(13)] | 495 nm | 0.69% | 47 h | – | – | –
CCSC1CC1C1=C2C(=O)N(C(CC)COC(=O)OC[N+](=O)[O-])C(=O)C2C2(c3scc([N+](=O)[O-])c31)C1CC3CC2CC(C)(C3)C1 (centres unmarked) [(37)] | 540 nm | 0.77% | 75 h | – | – | –
N#CCOCN1C(=O)C2=C(C3CC3c3ccccc3)c3sccc3C3(C2C1=O)C1(Cl)CCC3(Cl)CC1 (centres unmarked) [(14)] | 552 nm | 0.58% | 69 h | – | – | –
COC1CC1C1=C2C(=O)N(Cc3ccc4ccccc4c3)C(=O)C2C2(c3c1sc1ccccc31)C1CCC2CC1 (centres unmarked) [(19)] | 524 nm | 0.58% | 81 h | – | – | –
CC1=C2C(=O)OC(=O)C2C2(c3sc4c(c31)CCCC4)C1CCCC2CCC1 (centres unmarked) [(G), reference compound] | 585 nm | 0.71% | 10 h | – | – | –
Cc1cc2c(s1)C1(C3CCC1CC3)C1C(=O)N(C[N+](=O)[O-])C(=O)C1=C2C1CC1 (centres unmarked) [(8)] | 571 nm | 0.69% | 75 h | 578 nm | 0.63 | 80 h
CCC(C#N)N1C(=O)C2=C(C3CC3[N+](=O)[O-])c3c(sc4c3CCCC4)C3(C4CCCC3(C)CCC4)C2C1=O (centres unmarked) [(25)] | 562 nm | 0.71% | 76 h | 565 nm | 0.65 | 79 h

Second part, the compound after the results:

λmax [1] | Initial color density [1] | T1/2 [1] | λmax [2] | Initial color density [2] | T1/2 [2] | Structure (SMILES)
553 nm | 0.68% | 51 h | – | – | – | CCCCC1CC2CCCC(C1)C21c2sc(C)c(CC)c2C(C2C(I)C2I)=C2C(=O)N(CC3CCCCC3C#N)C(=O)C21 (centres unmarked) [(27)]
534 nm | 1.21% | 54 h | – | – | – | O=C1OC(=O)C2C1=C(C1CC1)c1c(oc3ccccc13)C21C2CCC1CC2 (centres unmarked) [(52)]
554 nm | 1.24% | 48 h | – | – | – | Cc1cc2c(s1)C1(C3CC4CC(Cl)(C3)CC1(Cl)C4)C1C(=O)OC(=O)C1=C2C1CC1 (centres unmarked) [(58)]
529 nm | 0.72% | 52 h | – | – | – | CN(C)c1ccc2cc(CCCN3C(=O)C4=C(C5CC5)c5c([N+](=O)[O-])csc5C5(C6CC7CC(C6)CC5C7)C4C3=O)ccc2c1 (centres unmarked) [(47)]
535 nm | 0.90% | 48 h | – | – | – | CC1=C2C(=O)N(CC#N)C(=O)C2C2(c3occc31)C1CCC2CC1 (centres unmarked) [(D), reference compound]
556 nm | 0.72% | 80 h | – | – | – | CC1=C2C(=O)N(C[N+](=O)[O-])C(=O)C2C2(c3sc(C)cc31)C1CCC2CC1 (centres unmarked) [(C), reference compound]
520 nm | 0.51% | 24 h | – | – | – | CCC(C(=O)OCCc1ccc2ccccc2c1)N1C(=O)C2=C(C)c3ccsc3C3(C4CC5CC(C4)CC3C5)C2C1=O (centres unmarked) [(A), reference compound]
574 nm | 0.73% | 85 h | 580 nm | 0.67 | 90 h | COC(=O)C(C)N1C(=O)C2=C(C3CC3)c3cc(-c4cccc(OC)c4)sc3C3(C4CC5CC(Cl)(C4)CC3(Cl)C5)C2C1=O (centres unmarked) [(35)]
545 nm | 1.25% | 58 h | 550 nm | 1.13 | 61 h | CCOc1cc2c(s1)C1(C3CCCC1CCC3)C1C(=O)OC(=O)C1=C2C1CC1 (centres unmarked) [(55)]
538 nm | 0.49% | 16 h | – | – | – | CC1=C2C(=O)N(CCCCC(=O)OCCc3ccc4ccccc4c3)C(=O)C2C2(c3sccc31)C1CC3CC(C1)CC2C3 (centres unmarked) [(B), reference compound]
561 nm | 0.92% | 52 h | 562 nm | 0.82 | 55 h | COc1cc2c(c(OC)c1OC)C1(C3CCC1CC3)C1C(=O)OC(=O)C1=C2C1CC1 (centres unmarked) [(51)]
546 nm | 0.78% | 72 h | – | – | – | COC(=O)C(C)N1C(=O)C2=C(C3CC3OC(C)(C)C)c3cc(Cl)oc3C3(C4CCCC3(C)CC(C)(C)C4)C2C1=O (centres unmarked) [(26)]
508 nm | 0.47% | 13 h | – | – | – | CC1=C2C(=O)N(CCc3cccc4ccccc34)C(=O)C2C2(c3c1sc1c3CCCC1)C1CCCC2CCC1 (centres unmarked) [(F), reference compound]
539 nm | 0.87% | 53 h | – | – | – | CC(C)COC(=O)CN1C(=O)C2=C(C3C(CCl)C3CCl)c3cc(Br)sc3C3(C4CCCC3CCC4)C2C1=O (centres unmarked) [(23)]
535 nm | – | 14 h | – | – | – | CC1=C2C(=O)N(CCCc3ccc4cc(N(C)C)ccc4c3)C(=O)C2C2(c3scc([N+](=O)[O-])c31)C1CC3CC(C1)CC2C3 (centres unmarked) [(E), reference compound]
525 nm | 1.18% | 56 h | 530 nm | 1.08 | 60 h | Cc1cc2c(n1C)C1(C3CCCC1CCC3)C1C(=O)OC(=O)C1=C2C1CC1 (centres unmarked) [(53)]
548 nm | 0.57% | 68 h | 553 nm | 0.51 | 71 h | CC(=O)OCN1C(=O)C2=C(C3CC3)c3sc(Br)cc3C3(C4CC5CC(C4)CC3C5)C2C1=O (centres unmarked) [(42)]
588 nm | 0.52% | 62 h | – | – | – | COc1cc(OC)c2c(c1)C(C1CC1O)=C1C(=O)N(C3CCC([N+](=O)[O-])CC3)C(=O)C1C21C2CCCC1(Cl)CCC2 (centres unmarked) [(29)]
509 nm | 0.62% | 72 h | – | – | – | CCOC(=O)C12CC3CC(C1)C1(c4c([N+](=O)[O-])csc4C(C4CC4Br)=C4C(=O)N(CC(F)(F)F)C(=O)C41)C(C(=O)OCC)(C3)C2 (centres unmarked) [(43)]
592 nm | 0.61% | 68 h | – | – | – | Cn1c2c(c3ccccc31)C1(C3CC4CC(C3)CC1C4)C1C(=O)N(CC(C)(C)CCOC(=O)CBr)C(=O)C1=C2C1CC1CCCc1ccccc1 (centres unmarked) [(38)]
